# In patent publication US4889801A (Daiichi Pure Chemicals Co., Ltd., priority 1986, dated 1989):
# What was measured:
# [1] = system: 3α-hydroxysteroid oxidase; assay: Relative activities of the 3α-hydroxysteroid oxidase for various substrates; assay type: biochemical, Pseudomonas testosterone ATCC 11996; conditions: substrate of the oxidase; R.A. of cholic acid being 100
# Procedure: Thereafter, the microorganism was cultured at the same temperature for 10-24 hours. After completion of the culture, the resultant culture broth was centrifuged to separate and collect cells. The thus-collected cells were suspended at 5° C. in 5 volumes of a 0.02 M phosphate buffer of pH 7.0, which contained 1% (w/v) of "Triton X-100" (BDH Ltd.), to a total volume of 1 l. By a cell disrupter, DINO-MILL (trade mark; manufactured by Willy A. Bachofen Maschinenfabrik AG), the cells were disrupted to release the enzyme. […] The extract was then added with 430 g of ammonium sulfate to a final concentration of 65% saturation, the precipitated fraction was collected by centrifugation. The precipitate was dissolved in a 0.lM phosphate buffer (pH 7) containing 0.1% of "Triton X-100" and the resultant mixture was dialyzed for 24 hours against the same buffer in order to remove any remaining ammonium sulfate.
# An azide was added as a preservative to the enzyme solution.
# [2] = system: 3α-hydroxysteroid oxidase; assay: Enzymatic characteristics: substrate specificity and Km value; assay type: biochemical, Pseudomonas testosterone ATCC 11996
Compound,R.A. (relative activity) [1] [%],Substrate specificity (oxidase acts on substrate or not) [2],Km ([2]; against ethiocholan-3α-ol-17-one) [µM]
"C[C@]12CCC(=O)C[C@@H]1CC[C@@H]1[C@@H]2CC[C@]2(C)C(=O)CC[C@@H]12 [5α-Androstan-3,17-dione]",0,–,–
C[C@]12CC[C@@H](O)C[C@@H]1CC[C@@H]1[C@@H]2CC[C@]2(C)C(=O)CC[C@@H]12 [5α-Androstan-3α-ol-17-one],0,–,–
"C[C@]12CCC(=O)C[C@H]1CC[C@@H]1[C@@H]2CC[C@]2(C)C(=O)CC[C@@H]12 [5β-Androstan-3,17-dione]",18,–,–
C[C@@]12CCC[C@H]1[C@@H]1CC[C@@H]3C[C@H](O)CC[C@]3(C)[C@H]1CC2 [5β-androstan-3α-ol],–,acts on,–
C[C@H](CCC(=O)O)[C@H]1CC[C@H]2[C@@H]3[C@H](O)C[C@@H]4C[C@H](O)CC[C@]4(C)[C@H]3CC[C@]12C [Chenodeoxycholic acid],89,–,–
CC(C)CCC[C@@H](C)[C@H]1CC[C@H]2[C@@H]3CC=C4C[C@@H](O)CC[C@]4(C)[C@H]3CC[C@]12C [Cholesterol],0,–,–
C[C@H](CCC(=O)O)[C@H]1CC[C@H]2[C@@H]3[C@H](O)C[C@@H]4C[C@H](O)CC[C@]4(C)[C@H]3C[C@H](O)[C@]12C [Cholic acid],100,–,–
C[C@H](CCC(=O)O)[C@H]1CC[C@H]2[C@@H]3CC[C@@H]4C[C@H](O)CC[C@]4(C)[C@H]3CC[C@]12C [Cithocholic acid],57,–,–
C[C@H](CCC(=O)O)[C@H]1CC[C@H]2[C@@H]3CC[C@@H]4C[C@H](O)CC[C@]4(C)[C@H]3C[C@H](O)[C@]12C [Deoxycholic acid],86,–,–
C[C@]12CC[C@@H](O)C[C@H]1CC[C@@H]1[C@@H]2CC[C@]2(C)C(=O)CC[C@@H]12 [Ethiocholan-3α-ol-17-one],140,–,800
C[C@H](CCC(=O)NCC(=O)O)[C@H]1CC[C@H]2[C@@H]3[C@H](O)C[C@@H]4C[C@H](O)CC[C@]4(C)[C@H]3C[C@H](O)[C@]12C [Glycocholic acid],95,–,–
C[C@]12CC[C@H]3[C@@H](CCC4=CC(=O)CC[C@@]43C)[C@@H]1CC[C@@H]2O [Testosterone],0,–,–
